Read-outs that look alike come from different tables or passages of the source.
Assays:
MDA-MB-231BR cells = assay: Clonogenic survival assay; format: cell-based; details: 100 μM, 48 h treatment, 10 days growth
Method: Triple-negative brain trophic cells MDA-MB-231BR and 4T1BR cells were a kind gift from Dr. Patricia Steeg (Center for Cancer Research, National Cancer Institute) ([Achrol et al., 2019]). Both cell lines were cultured in DMEM supplemented with 10% fetal bovine serum (FBS), 5% 10,000 Units/mL Penicillin-10,000 μg/mL Streptomycin, and 5% 200 mM L-Glutamine. For crystal violet staining, 5 × 10^4 cells were plated and subjected to the treatments as described in the individual figures and then stained with 0.5% crystal violet prepared in a 1:1 methanol-water solution followed by PBS washes. ACSS2 inhibitors were dissolved in 100% ultra-pure DMSO.
To assess clonogenic survival, 1 × 10^5 cells were seeded into a 6-well plate until 70%–80% confluency and treated for 48 h with analogs at 100 uM (unless otherwise stated in the figure legend). After 48 h, cells were trypsinized and counted using hemocytomer, and 1 × 10^4 cells per treatment were plated into a 6-well plate with fresh culture medium and allowed to grow for 10 days. Following 10-day incubation, cells were washed twice with PBS, stained with crystal violet for 30 min, and washed with dH2O twice. Colonies >50mircons were counted. For crystal violet staining, 0.5% crystal violet was prepared in a 1:1 methanol-water solution.

[1] = Human liver microsome stability; details: for half-life: Human Liver Microsome Stability T1/2, human liver microsomes
ACSS2 [2] = target: T1, ACSS2 (Homo sapiens, UniProt Q9NR19); assay: SPR binding to immobilized ACSS2; details: mean; for koff / kon: 1:1 binding model
T1 construct: His-tag (N); His-tag (C); made in house; host or cells: E. coli BL21 (DE3) RIL
Method: Overproduction of ACSS2 was achieved using a prokaryotic expression system. […] The bacterial expressions were then spun down, the supernatant discarded, and the pellets resuspended in 50 mM Tris HCl pH8.0, 800 mM NaCl, 5 mM Imidazole, 2 mM MgCl2, 10% Glycerol, 0.1 mg/mL Lysozyme, 1 mM Protease inhibitor (PMSF). After the cells were lysed via sonication, the sample was subjected to ultracentrifugation, and the clarified lysate was applied to a 5 mL Talon cobalt resin affinity column (Clonetech Laboratories, Mountain View, CA). The bound protein was washed with 300 mL wash buffer 1 (20 mM Tris HCl pH8.0, 800 mM NaCl, 15 mM Imidazole, 5 mM MgCl2, 10% Glycerol, 0.1% CHAPS) and 300 mL wash buffer 2 (20 mM Tris HCl pH8.0, 400 mM NaCl, 18 mM Imidazole, 5 mM MgCl2, 10% Glycerol) prior elution with 20 mM Tris HCl pH8.0, 400 mM NaCl, 300 mM Imidazole, 2 mM MgCl2, 5% Glycerol. Eluted ACSS2 was then dialyzed overnight into 20 mM Tris HCl pH8.0, 150 mM NaCl, 5% Glycerol, concentrated and applied to a Superdex S-200 (16/600) using the same buffer without Glycerol. ACSS2 fractions were pooled, concentrated to 3 mg/mL, aliquoted, and stored at −80°C. hACSS1 was obtained from a commercial vendor (www.mybiosource.com).
All binding assays were performed on a ProteOn XPR36 SPR Protein Interaction Array System (Bio-Rad Laboratories, Hercules, CA, United States). The instrument temperature was set at 25°C for all kinetic analyses. ProteOn GLH sensor chips were preconditioned with two short pulses each (10 s) of 50 mM NaOH, 100 mM HCl, and 0.5% sodium […]. Then, the system was equilibrated with running buffer (1x PBS pH 7.4, 3% DMSO, and 0.005% polysorbate 20). The surface of a GLH sensor chip was activated with a 1:100 dilution of a 1:1 mixture of 1-ethyl-3-(3-dimethylaminopropyl) carbodiimide hydrochloride (0.2 M) and sulfo-N-hydroxysuccinimide (0.05 M). Immediately after chip activation, the human ACSS2 or hACSS1 proteins were prepared at a concentration of 10 μg/mL in 10 mM sodium acetate, pH 5.5, and injected across ligand flow channels for 5 min at a flow rate of 30 μL/min. Then, after unreacted protein had been washed out, excess active ester groups on the sensor surface were capped by a 5 min injection of 1M ethanolamine HCl (pH 8.0) at a flow rate of 5 μL/min. A reference surface was similarly created by immobilizing a nonspecific protein (IgG b12 anti-HIV-1 gp120; was obtained through the NIH AIDS Reagent Program, Division of AIDS, NIAID, NIH: Anti-HIV-1 gp120 Monoclonal (IgG1 b12) from Dr. Dennis Burton and Carlos Barbas) and was used as a background to correct nonspecific binding. […] Data were analyzed using the ProteOn Manager Software version 3.0 (Bio-Rad). The responses from the reference flow cell were subtracted to account for the nonspecific binding and injection artifacts. Experimental data were fitted to a simple 1:1 binding model. Experiments were performed in triplicate to detect kinetic and equilibrium dissociation constants (KD).

ACSS2 [3] = target: T1, ACSS2; assay: Fluorescence polarization-based ACSS2 biochemical assay (ATP to AMP conversion); details: 100 nM ACSS2, triplicate, ± SD; read-out: IC50, inhibition of ATP to AMP conversion of ACSS2
Method: ACSS2 enzyme activity was measured using the TranScreener AMP^2/GMP^2 Assay Kit—FP Readout assay (BellBrook Labs). The assay was performed in white, opaque, 96-well plates. […] ACSS2 was used in assay buffer (30 mM HEPES, pH 7.4, 140 mM NaCl, 2 mM MgCl2, 5 mM sodium acetate, 2 mM DTT, 0.05% CHAPS). Substrate mix was added, followed by a 60-min incubation. Final substrate concentrations were 5 mM acetate, 50 μM ATP, and 5 μM CoA. After incubation, conjugated AMP antibody and AMP tracer were added according to the methods described by BellBrook Labs. After 30 min, the FP signal was measured using a Tecan Spark multimode microplate reader. In the analysis, data were normalized to represent the percentage inhibition of ATPase activity.

MDR1 (P-gp) = assay: Bi-directional permeability across MDR1-MDCK cell monolayer (BBB assay); format: in vitro ADME, canine; details: dog; MDR1-MDCK I monolayer, A to B
From the text: This assay provides the apparent permeability coefficient (Papp), efflux ratio, and % recovery to assess compound permeation.

FASN = assay: Immunoblot of FASN protein levels; format: cell-based; details: MDA-MB-231BR cells, 24 h
Method: Immunoblotting protocols have been previously described. Briefly, cell lysates from one to five x 10^6 cells were prepared in radioimmune precipitation assay buffer (150 mM NaCl, 1% NP40, 0.5% DOC, 50 mM Tris HCL at pH 8, 0.1% SDS, 10% glycerol, 5 mM EDTA, 20 mM NaF, and 1 mM Na3VO4) supplemented with 1 μg/mL each of pepstatin, leupeptin, aprotinin, and 200 μg/mL PMSF. Lysates were cleared by centrifugation at 16,000 x g for 15 min at 4°C and analyzed by SDS-PAGE and autoradiography with chemiluminescence. Proteins were analyzed by immunoblotting using primary antibodies indicated above.

[4] = 25°C, Langmuir isotherm equilibrium fit, n=3, read-out: KD equilibrium
[5] = global fit, n=3, read-out: KD kinetic/global

T1 sequence (Q9NR19 whole entry): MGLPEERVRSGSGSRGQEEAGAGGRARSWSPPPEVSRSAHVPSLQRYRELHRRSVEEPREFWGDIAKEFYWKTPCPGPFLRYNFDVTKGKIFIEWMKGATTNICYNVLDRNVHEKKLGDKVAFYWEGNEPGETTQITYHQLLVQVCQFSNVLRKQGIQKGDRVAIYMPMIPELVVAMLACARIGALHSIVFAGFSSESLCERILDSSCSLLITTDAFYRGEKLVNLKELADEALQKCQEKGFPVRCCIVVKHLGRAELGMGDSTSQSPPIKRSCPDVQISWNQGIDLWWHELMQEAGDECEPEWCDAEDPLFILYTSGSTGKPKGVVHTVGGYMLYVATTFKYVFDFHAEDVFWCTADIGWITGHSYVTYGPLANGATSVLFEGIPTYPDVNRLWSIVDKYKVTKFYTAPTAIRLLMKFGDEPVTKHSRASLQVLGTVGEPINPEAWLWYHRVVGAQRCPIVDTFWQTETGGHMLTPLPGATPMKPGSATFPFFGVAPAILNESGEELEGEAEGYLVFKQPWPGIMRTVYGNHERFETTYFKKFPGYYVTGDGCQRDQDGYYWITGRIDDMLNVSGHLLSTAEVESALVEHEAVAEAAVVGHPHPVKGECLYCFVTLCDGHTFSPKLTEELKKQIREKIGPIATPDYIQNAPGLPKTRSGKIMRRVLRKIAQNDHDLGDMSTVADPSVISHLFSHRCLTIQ

C[C@H](N)C(=O)N1CCCC(c2ccccc2)(c2ccccc2)C1 [AD-1363]
clonogenic survival (MDA-MB-231BR cells): significant reduction in clonogenic survival

O=C(CCN1CCCC(c2ccccc2)(c2ccccc2)C1)NC1CC1 [AD-2441]
clonogenic survival (MDA-MB-231BR cells): significantly reduce clonogenic survival

Cc1cccn2c(CC(=O)NCCC(c3ccccc3)c3ccco3)cnc12 (stereo not shown) [AD-3766]
Remaining (T=60min) ([1]; human liver microsomes): 0.0005 | Remaining (NCF=60min) ([1]; human liver microsomes): 0.9639 | CLint scaled ([1]; human, liver microsomes): 1360 mL/min/kg | Human Liver Microsome Stability T1/2 ([1]; human, liver microsomes): 54 s | microsomal CLint ([1]; human, liver microsomes): 1520 µL/min/mg | half-life ([1]; human, liver microsomes): 54.8 s | clonogenic survival (MDA-MB-231BR cells): significant reduction in clonogenic survival | koff (ACSS2 [2]; n=3, read-out: koff): 0.359 s⁻¹ | kon (ACSS2 [2]; n=3, read-out: kon): 5010 M⁻¹ s⁻¹ | Kd (ACSS2 [2]; [4]): 70.6 µM | Kd (ACSS2 [2]; [5]): 77.6 µM

CN1CCC(O)(C(=O)NCCc2ccccc2Oc2ccccc2)CC1 [AD-7346]
IC50 (ACSS2 [3]): 2.03 ± 0.21 µM | koff (ACSS2 [2]; n=3, read-out: koff): 0.399 s⁻¹ | kon (ACSS2 [2]; n=3, read-out: kon): 10100 M⁻¹ s⁻¹ | Kd (ACSS2 [2]; [4]): 39.8 µM | Kd (ACSS2 [2]; [5]): 49.4 µM

O=C(O)Cc1ccccc1Nc1c(Cl)cccc1Cl [Diclofenac, reference compound]
Remaining (T=60min) ([1]; human liver microsomes): 0.00044 | Remaining (NCF=60min) ([1]; human liver microsomes): 0.8763 | CLint scaled ([1]; human, liver microsomes): 236 mL/min/kg | microsomal CLint ([1]; human, liver microsomes): 262 µL/min/mg | half-life ([1]; human, liver microsomes): 318 s

COCCc1ccc(OCC(O)CNC(C)C)cc1 (stereo not shown) [Metoprolol, reference compound]
Papp A→B (MDR1 (P-gp)): 12.9 ×10⁻⁶ cm/s

C[C@]12CC[C@H]3[C@@H](CCC4=CC(=O)CC[C@@]43C)[C@@H]1CC[C@@H]2O [Testosterone, reference compound]
Remaining (T=60min) ([1]; human liver microsomes): 0.06959 | Remaining (NCF=60min) ([1]; human liver microsomes): 0.8976 | CLint(liver) ([1]; human liver microsomes, scaled): 80.3781 mL/min/kg

COCCNC(=O)Nc1ccc2nc(-c3cccs3)c(-c3cccs3)nc2c1 [VY-3-249, reference compound]
protein levels of FASN (FASN): reduced protein levels of FASN | clonogenic survival (MDA-MB-231BR cells): significantly reduce clonogenic survival | IC50 (ACSS2 [3]): 1.2 ± 0.49 µM | koff (ACSS2 [2]; n=3): 0.105 s⁻¹ | kon (ACSS2 [2]; n=3): 1800 M⁻¹ s⁻¹ | Kd (ACSS2 [2]; [4]): 53.2 µM | Kd (ACSS2 [2]; [5]): 66 µM

Source: article PMC11137182, “Selective and brain-penetrant ACSS2 inhibitors target breast cancer brain metastatic cells” (Frontiers in Pharmacology, 2024)
